A melting point compilation (Tetko et al.)

| SMILES | melting point [°C] |
| --- | --- |
| CC(=O)N1CCCNc2ccccc21 | 132 to 134 |
| NC(Cn1cncn1)c1ccccc1 (stereo not given) | 87 to 89 |
| O=C(O)c1ccc(C2CCCOC2)cc1 (stereo not given) | 166 to 168 |
| O=[N+]([O-])c1cnc2c(c1)CCC2 | 85 to 87 |
| Nc1nnc(N)s1 | 192 to 194 |
| O=C(Cc1ccccc1)C(Br)c1ccccc1 (stereo not given) | 47 to 49 |
| CS(=O)(=O)Cc1cc(N)ccc1Cl | 135 to 137 |
| Nc1ccc(S(N)(=O)=O)cc1Cl | 156 to 158 |
| Nc1nonc1-c1ccc(Cl)c(Cl)c1 | 143 to 145 |
| O=c1c2ccccc2nc(S)n1-c1ccc(Cl)cc1 | 336 to 338 |
| Nc1ccc(Br)cc1S(=O)(=O)N1CCOCC1 | 142 to 144 |
| NNc1c(F)cc(C(=O)NC2CC2)cc1F | 204 to 206 |
| O=C(O)c1coc(-c2ccccc2)n1 | 209 to 211 |
| Cc1c[nH]nc1[N+](=O)[O-] | 183 to 185 |
| CS(=O)(=O)c1cccc(C(=O)c2ccc(Cl)cc2)c1 | 107 to 109 |
| CN1C(=O)CNc2ccccc21 | 88 to 90 |
| NS(=O)(=O)c1cccc(I)c1 | 148 to 150 |
| COc1ccc2cc(CO)ccc2c1 | 122 to 124 |
| Cc1ccc(-n2ncc(Cl)c(Cl)c2=O)cc1Cl | 206 to 208 |
| Cn1c(=O)n(Cc2ccc(Br)cc2)c(=O)c2ccc(C(F)(F)F)nc21 | 103 to 105 |
| NCC1CC(=O)Nc2ccccc21 (stereo not given) | 142 to 144 |
| Oc1ccc(Oc2ccncc2)cc1 | 181 to 183 |
| CSc1nc(N)cc(O)n1 | 279 to 281 |

| SMILES | melting point [°C] |
| --- | --- |
| NCC1(O)CCC1 | 64 to 66 |
| Cn1ccc(CCl)cc1=O | 64 to 66 |
| CC(Br)C(=O)c1ccc(Cl)cc1 (stereo not given) | 68 to 70 |
| O=S(=O)(Cl)CCS(=O)(=O)c1ccc(F)cc1 | 145 to 147 |
| O=C(O)C1CC(=O)N(c2cccc(Cl)c2)C1 (stereo not given) | 133 to 135 |
| ON=Cc1c(Cl)nc2ccccn12 | 209 to 211 |
| C#CCn1cnc(-c2ccccc2)c1N | 126 to 128 |
| O=c1oc2ccccc2c(O)c1Cc1c(O)c2ccccc2oc1=O | 290 to 292 |
| O=C(O)C1CCN(C(=O)c2ccccc2)CC1 | 144 to 146 |
| CCN1C(=O)CC(=O)NC1=O | 118 to 120 |
| O=C(O)C=Cc1ccccc1OC(F)(F)F | 174 to 176 |
| Nc1cc(Br)ccc1N1CCOCC1 | 153 to 155 |
| Cc1nccn1-c1ccc(N)cn1 | 160 to 162 |
| COc1ccc(S(=O)(=O)Cl)c2ccccc12 | 95 to 97 |
| Nc1nc(-c2cc(F)ccc2F)cs1 | 145 to 147 |
| O=S(=O)(F)c1ccc2cn[nH]c2c1 | 219 to 221 |
| Cc1cc(S(=O)(=O)Cl)ccc1F | 36 to 38 |
| Nc1ccc(NC(=O)N2CCCCCC2)cc1 | 132 to 134 |
| N#CCC(=O)c1c[nH]c2cc(Cl)ccc12 | 293 to 295 |
| Cc1cc(N)ccc1OCCN1CCCC1 | 112 to 114 |
| N#Cc1cc(F)ccc1-n1ccc(N)n1 | 128 to 130 |
| Cc1ccc(-c2nn(CCC#N)cc2C(=O)O)cc1C | 174 to 176 |
| O=C1NCCCCC1Oc1ccc(Br)cc1 (stereo not given) | 176 to 178 |

| SMILES | melting point [°C] |
| --- | --- |
| O=C(O)C1(c2ccc(Br)cc2)CCCCC1 | 179 to 181 |
| Clc1nnc(-c2cccc3ncccc23)s1 | 143 to 145 |
| O=S(=O)(c1ccc(Cl)c(Cl)c1)N1CCNCC1 | 125 to 127 |
| OCCCOc1cccc2ccccc12 | 65 to 67 |
| Nc1ccc(C(=O)N2CCOCC2)cc1 | 134 to 136 |
| O=C(O)c1ccccc1C(=O)c1ccc2c(c1)OCCO2 | 168 to 170 |
| N#Cc1ccc2ncccc2c1 | 135 to 137 |
| O=C1c2ccccc2C(=O)N1CCCc1nn[nH]n1 | 79 to 81 |
| O=c1n(CCO)nc2ccccn12 | 134 to 136 |
| N#Cc1ccc(COc2ccccc2F)cc1 | 68 to 70 |
| Cc1csc2ccc(Cl)cc2c1=O | 109 to 111 |
| Cc1ccc(-n2c(C)c[nH]c2=O)cc1 | 195 to 197 |
| Nc1ccc2nc(N)ccc2c1 | 213 to 215 |
| Cc1nc(Cl)c2cnn(-c3ccc(F)cc3)c2n1 | 114 to 116 |
| O=S(=O)(c1cccc(C(F)(F)F)c1)N1CCNCC1 | 100 to 110 |
| Nc1cccc(NC(=O)c2cccnc2)c1 | 155 to 157 |
| C1CCC(c2nnn[nH]2)C1 | 119 to 121 |
| Cc1cc(C)c2c(C)nn(-c3ccc(N)cc3)c2n1 | 104 to 106 |
| O=C(O)c1c(F)cc(OC(F)F)cc1F | 106 to 108 |
| O=C1CNC(=O)N1CCCl | 114 to 116 |
| NC1=C(c2nc3ccccc3[nH]2)C(=O)CN1N | 296 to 300 |

Now from value to molecule:

| melting point [°C] | SMILES |
| --- | --- |
| 72 to 74 | COC(=O)Nc1ccc(N)cc1F |
| 126 to 128 | CC1CCCCC1NC(=O)NC(=O)CCl (stereo not given) |
| 156 to 158 | O=C(O)CCS(=O)(=O)Cc1cccc(Br)c1 |
| 196 to 198 | CN(C)C(=O)c1ccnc(N)c1 |
| 90 to 92 | CC(C)CCC(=O)NCCCS(N)(=O)=O |
| 110 to 112 | CCN(CC)S(=O)(=O)c1cccc(C(=O)NC(C(=O)O)C(C)C)c1 (stereo not given) |
| 117 to 119 | CCOC(=O)c1cnn2cccnc12 |
| 140 to 142 | CC(Cl)C(=O)c1c(N)n(C)c(=O)n(C)c1=O (stereo not given) |
| 253 to 255 | Cc1c(C(=O)O)sc2nc3n(c(=O)c12)CCCCC3 |
| 86 to 88 | CC(CN1CCOCC1)C(=O)NN (stereo not given) |
| 48 to 52 | CCCCNS(=O)(=O)c1ccc(N)c(N)c1 |
| 98 to 100 | CC1CCN(CCCC(N)=NO)CC1 |
| 172 to 174 | O=C(O)Cc1cc(-c2ccccc2)on1 |
| 186 to 188 | COc1ccc(C(CC(=O)O)NC(C)=O)cc1 (stereo not given) |
| 281 to 283 | Cc1cccc2c(O)c(C(=O)O)cnc12 |
| 142 to 144 | Cc1ccc(-c2noc(CCC(=O)O)n2)cc1F |
| 75 to 77 | Cc1cccc(CC(N)=S)c1 |
| 143 to 145 | CCS(=O)(=O)N1CCC(C(=O)O)CC1 |
| 176 to 178 | NNC(=O)Nc1cc(F)cc(F)c1 |
| 131 to 133 | CC(C)(C)NS(=O)(=O)c1ccccc1CN |
| 164 to 166 | NC(=NO)c1ccc2c(c1)OCO2 |
| 211 to 213 | O=C(O)c1occc1CS(=O)(=O)c1ccc(Br)cc1 |
| 185 to 187 | O=C(Cc1ccc2ccccc2c1)NO |
| 289 to 291 | Cc1oc2[nH]c(=O)n(-c3ccccc3)c(=O)c2c1C(=O)O |
| 285 to 286 | CCCCn1c(N)c(NCC)c(=O)[nH]c1=O |
| 138 to 140 | O=C(O)C1=NN(C2CCS(=O)(=O)C2)C(=O)CC1 (stereo not given) |

| melting point [°C] | SMILES |
| --- | --- |
| 148 to 150 | CC(C)(C)C(=O)N1CCOC(C(=O)O)C1 (stereo not given) |
| 197 to 199 | O=C(CCl)Nc1cccc(C(=O)Nc2cccc(C(F)(F)F)c2)c1 |
| 214 to 216 | O=C(O)c1ccc(N2CCCc3ccccc32)cc1 |
| 183 to 185 | Cc1c(Br)cc(C(=O)O)cc1[N+](=O)[O-] |
| 172 to 174 | COc1ccccc1NC(=O)CC1Nc2ccccc2NC1=O (stereo not given) |
| 161 to 163 | NC(=S)NN=Cc1cccs1 |
| 122 to 124 | O=Cc1cccc(OCc2cccc(C(=O)O)c2)c1 |
| 88 to 90 | NNC(=O)NCc1ccco1 |
| 81 to 83 | CCOC(=O)c1c(N)sc2c1CCN(C(C)C)C2 |
| 75 to 77 | CC(C(=O)O)c1cccc(Cl)c1 (stereo not given) |
| 169 to 171 | O=C(O)CNC(=O)c1cccs1 |
| 136 to 138 | CCOC(=O)c1c(C)oc2ccc(O)cc12 |
| 229 to 231 | Cc1noc2ncc(C(=O)O)cc12 |
| 99 to 101 | CC(C)(C)OC(=O)NC1CCCC1CN (stereo not given) |
| 133 to 135 | COc1ccc(NC(=O)C(C)Cl)cc1 (stereo not given) |
| 296 to 298 | CSc1nccn1-c1ccc(C(=O)O)cc1 |
| 172 to 174 | CC(C)(C)OC(=O)NCCCn1ccc2cc(C(=O)O)ccc21 |
| 123 to 125 | CC(Cl)C(=O)Nc1cc(Cl)ccc1Cl (stereo not given) |
| 224 to 226 | Cc1noc(C)c1COc1ccc(C(=O)O)cc1 |
| 103 to 105 | Cc1coc(C=CC(=O)O)n1 |
| 119 to 121 | O=C(O)CCc1nnnn1-c1ccccc1 |
| 192 to 194 | O=C(Nc1ccc(-n2cncn2)nc1)OCC(F)(F)F |
| 299 to 301 | CC(=O)Nc1nc(C(=O)O)cs1 |
| 79 to 81 | CN(C)C(=O)c1cccc([N+](=O)[O-])c1 |
| 123 to 125 | CN(CC(=O)NC(C)(C)C)CC(N)=S |
| 180 to 182 | Nc1ccc(F)c(NC(=O)Cc2ccccc2)c1 |

| melting point [°C] | SMILES |
| --- | --- |
| 133 to 135 | CC(C)CCn1nc(C(=O)O)c2ccccc2c1=O |
| 93 to 95 | CCOC(=O)c1ncoc1-c1ccco1 |
| 99 to 101 | Oc1cccc(CNCC2CC2)c1 |
| 138 to 140 | NC(=S)NC1CC1 |
| 184 to 186 | Cc1nc2cc(NC(=O)CCC(=O)O)ccc2o1 |
| 103 to 105 | CC(C)c1nc(C#N)c(NN)o1 |
| 83 to 85 | NC(=O)NCC1CCCNC1 (stereo not given) |
| 140 to 142 | CN(C)c1ccc(NC(=O)NN)cc1 |
| 83 to 85 | Cc1nnc(CO)s1 |
| 205 to 207 | CCN(C(C)=O)C(C(=O)O)c1ccc(F)c(F)c1 (stereo not given) |
| 104 to 106 | O=C(O)CCS(=O)(=O)C(F)(F)F |
| 129 to 131 | CNC(=O)NCCC(=O)O |
| 154 to 156 | Cc1ccc(C(=O)Nc2ccccc2N)cc1 |
| 182 to 184 | O=C(O)c1ccc(CSc2ccc(Cl)cc2)cc1 |
| 84 to 86 | CC(C)COc1ncccc1C(=O)O |
| 56 to 58 | O=C(CCCl)NCCc1ccccc1 |
| 172 to 174 | COc1ccc(C(=O)O)cn1 |
| 189 to 191 | CC(C)(C)c1ccc(C2(C(=O)O)CCCC2)cc1 |
| 102 to 104 | COc1cncc(CCC(=O)O)c1 |
| 79 to 81 | O=C(O)C(Cc1ccccc1)Cc1ccc(Cl)cc1 (stereo not given) |
| 164 to 166 | O=C(O)c1cc(Cl)c(Cl)[nH]1 |
| 128 to 130 | CNC(=O)COc1cccc(CC(=O)O)c1 |
| 144 to 146 | Cc1cc(N)ccc1S(C)(=O)=O |
| 73 to 77 | CCOC(=O)CNc1ccc(F)cc1 |
| 133 to 135 | CCOc1ccc(C=C(C(=O)O)c2cccs2)cc1 |
| 128 to 130 | NCc1cccc(NC(=O)N2CCCC2)c1 |
